The Kinase Knowledgebase extract (Sharma et al. 2016)

These compounds were tested against MAPK14 (human) (UniProt Q16539) (assay: Inhibition of MAPK14 Kinase Activity).
MAPK14 (human), sequence (Q16539 whole entry, looked up): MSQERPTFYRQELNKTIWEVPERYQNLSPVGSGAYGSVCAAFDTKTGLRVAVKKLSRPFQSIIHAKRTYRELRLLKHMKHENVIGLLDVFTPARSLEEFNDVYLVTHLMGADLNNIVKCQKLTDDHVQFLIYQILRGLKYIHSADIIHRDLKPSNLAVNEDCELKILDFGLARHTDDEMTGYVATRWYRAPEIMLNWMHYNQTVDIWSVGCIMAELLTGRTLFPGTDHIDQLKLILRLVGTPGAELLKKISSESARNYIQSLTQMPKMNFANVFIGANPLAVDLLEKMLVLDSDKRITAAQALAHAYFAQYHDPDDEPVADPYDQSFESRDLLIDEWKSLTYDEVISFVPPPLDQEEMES

IC50, > 20 µM:
CC(C)(C)NS(=O)(=O)c1ccc(-c2cnc3cccc(Nc4ccccn4)c3c2)cc1
CS(=O)(=O)N(c1ccc(-c2cnc3ccc4ccncc4c3c2)cc1)S(C)(=O)=O
Oc1ccc(-c2cnc3ccc4ccncc4c3c2)cc1
c1ccc(-c2cnc3ccc4ccncc4c3c2)cc1
CS(=O)(=O)Nc1ccc(-c2cnc3cccc(-c4ccncc4)c3c2)cc1
CS(=O)(=O)Nc1ccc(-c2cnc3cccc(Nc4ncccn4)c3c2)cc1
CS(=O)(=O)Nc1ccc(-c2cnc3ccc4ccncc4c3c2)cc1
CS(=O)(=O)Nc1ccc(-c2cnc3cccc(Nc4ccc(Cl)cn4)c3c2)cc1
CS(=O)(=O)Nc1ccc(-c2cnc3cccc(Nc4ccccn4)c3c2)cc1
Nc1ccc(-c2cnc3ccc4ccncc4c3c2)cc1
CC(C)(C)NS(=O)(=O)c1ccc(-c2cnc3cccc(Nc4ccc(Cl)cn4)c3c2)cc1
CC(=O)Nc1ccc(-c2cnc3ccc4ccncc4c3c2)cc1
CS(=O)(=O)Nc1ccc(-c2cnc3cccc(-c4cccnc4)c3c2)cc1
